# Experimental data as given in patent publication US7439264B2, “Therapeutic compounds” (President and Fellows of Harvard College, priority 2002, dated 2008).
# Where “and” joins values, the source holds several entries; their conditions need not be identical. Identical values can stand only once. Entries after “also recorded” stand apart in the source; their conditions may differ. Like-named read-outs stand apart in the source and are kept apart here.
# Assays:
# [1] = target: T1, dopamine transporter (DAT) (UniProt Q9GJT6); test: Competition binding with [3H]WIN 35,428 at the dopamine transporter
# T1 construct: Dopamine transporter IC50 (nM) [3H]WIN 35,428; other: unit not given
# Protocol: (§1) The affinities (IC50) of the compounds for the dopamine and serotonin transporters were determined in competition studies using [3H]2β-carbomethoxy-3β-(4-fluorophenyl)-8-methyl-8-azabicyclo[3.2.1]octane ([^3H]WIN 35,428) to label the dopamine transporter and [^3H]citalopram to label the serotonin transporter. Competition studies were conducted with a fixed concentration of radioligand and a range of concentrations of the test compound. […] The cells were then exhaustively washed to remove non-covalently bound ligand and binding of cocaine (20 nM) and dopamine uptake (Vmax) were compared.
# [2] = target: serotonin transporter (SERT) (UniProt A7KAX8); test: Competition binding with [3H]citalopram at the serotonin transporter
# Protocol: as §1
# [3] = target: T2, human dopamine transporter (Homo sapiens, UniProt Q01959); test: [3H]cocaine binding in hDAT HEK-293 cells after pre-incubation with compound and washing; details: for Inhibition of cocaine binding after 24 h (%): 24-h pre-incubation, cells extensively washed, [3H]cocaine 20 nM, HEK-293 hDAT; for irreversible binding to the DAT: 24 hour incubation, then washing
# T2 construct: expressed in transfected cells; host or cells: HEK-293
# [4] = target: T2, human dopamine transporter; test: [3H]dopamine uptake in hDAT HEK-293 cells after pre-incubation with compound and washing; format: cell-based; set-up: Inhibition of DA uptake after 24 h (%) / Inhibition of DA uptake: concentration or dose not given beside the values; details: for Inhibition of DA uptake after 24 h (%): 24-h pre-incubation, cells extensively washed, HEK-293 hDAT; for decrease of [3H]dopamine transport / [3H]Dopamine transport % of control: 24 hour pre-incubation
# DAT = DAT (Macaca fascicularis, UniProt Q9GJT6); details: quoted for known ligands; cited from earlier work
# [5] = Table 5, read-out: Dopamine transporter IC50 (nM) [3H]WIN 35,428
# [6] = unit inferred, read-out: DAT (binding, Table 6)
# [7] = Table 5, read-out: Serotonin transporter IC50 (nM) [3H]citalopram
# [8] = unit inferred, read-out: SERT (binding, Table 6)
# [9] = 24 hour pre-incubation, O-1893 (1 uM)
# [10] = 24 hours, concentration not stated (n=4)
# [11] = 24 hour pre-incubation with O-2153
# T2 sequence (Q01959 whole entry): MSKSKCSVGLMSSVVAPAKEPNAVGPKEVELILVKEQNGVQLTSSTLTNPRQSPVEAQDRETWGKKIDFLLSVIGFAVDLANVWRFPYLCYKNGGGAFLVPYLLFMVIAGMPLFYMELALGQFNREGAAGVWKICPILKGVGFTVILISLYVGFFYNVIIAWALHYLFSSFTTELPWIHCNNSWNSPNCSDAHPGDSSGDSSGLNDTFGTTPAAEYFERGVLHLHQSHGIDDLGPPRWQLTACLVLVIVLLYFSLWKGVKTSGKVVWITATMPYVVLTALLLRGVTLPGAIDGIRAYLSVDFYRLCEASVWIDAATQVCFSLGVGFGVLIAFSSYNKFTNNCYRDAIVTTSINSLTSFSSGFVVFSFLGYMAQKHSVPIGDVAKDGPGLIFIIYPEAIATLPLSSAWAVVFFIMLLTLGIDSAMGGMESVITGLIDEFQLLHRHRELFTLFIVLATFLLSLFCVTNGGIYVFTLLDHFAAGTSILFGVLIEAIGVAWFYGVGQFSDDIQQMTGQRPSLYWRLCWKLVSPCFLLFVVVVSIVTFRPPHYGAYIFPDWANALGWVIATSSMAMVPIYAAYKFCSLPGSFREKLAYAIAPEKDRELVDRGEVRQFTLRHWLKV
# Chain of DAT (Q9GJT6 whole entry): as the sequence (Q01959 whole entry) above, with V24M, I137V, P194S, S198G, D200N, S201G, S202P counted along it
compound,measurement,setting,value
"O=C(CCC1CO1)OCC1C2CCC(CC1c1ccc(Cl)c(Cl)c1)O2 (racemic) [Compound O-1834, 3-Oxiranyl-propionic acid [3α-(3,4-dichlorophenyl)-8-oxabicyclo[3.2.1]oct-3β-yl]methyl ester]",IC50,[1]; [5],17 nM
same,IC50,[1]; [6],17 nM
same,IC50,[2]; [7],292 nM
same,IC50,[2]; [8],294 nM
same,Inhibition of cocaine binding after 24 h (%),[3],18%
same,Inhibition of Cocaine Binding,"[3]; Table 6, incub time 24 h",18%
same,Inhibition of DA uptake after 24 h (%),[4],68%
same,Inhibition of DA uptake,"[4]; Table 6, incub time 24 h",68%
"COC(=O)C1C2CCC(CC1c1ccc(Cl)c(Cl)c1)O2 (stereo not drawn) [2β-carbomethoxy-3α-(3′,4′-dichlorophenyl)-8-oxabicyclo[3.2.1]octane]",IC50,DAT,2.34 nM
"COC(=O)[C@H]1[C@@H](OC(=O)c2ccccc2)C[C@@H]2CC[C@H]1N2C [(−)-Cocaine, cocaine, reference compound]",IC50,[1]; [5],95 nM
same,IC50,[2]; [7],270 nM
"COCC(=O)OCCCN1C2CCC1C(C(=O)OC)C(c1ccc(F)cc1)C2 (stereo not drawn) [Compound O-1071, 2β-Carbomethoxy-3β-(4-fluorophenyl)-8-(3-methoxyacetoxypropyl)-8-azabicyclo[3 2.1]octane]",IC50,[1]; [6],125 nM
same,IC50,[2]; [8],3000 nM
same,Inhibition of Cocaine Binding,"[3]; Table 6, incub time 24 h",0%
same,Inhibition of DA uptake,"[4]; Table 6, incub time 24 h",0%
"COC(=O)C1C(c2ccc(F)cc2)CC2CCC1N2CCOC(C)=O (stereo not drawn) [Compound O-1103, 2β-Carbomethoxy-3β-(4-fluorophenyl)-8-(2-acetoxyethyl)-8-azabicyclo[3.2.1]octane]",IC50,"[1]; read-out: DAT (binding, Table 6), unit inferred",20 nM
same,IC50,"[2]; read-out: SERT (binding, Table 6), unit inferred",200 nM
same,Inhibition of Cocaine Binding,"[3]; Table 6, incub time 24 h",0%
same,Inhibition of DA uptake,"[4]; Table 6, incub time 24 h",0%
"COC(=O)C1C(c2ccc(F)cc2)CC2CCC1N2CCN1C(=O)C=CC1=O (stereo not drawn) [Compound O-1233, 2β-Carbomethoxy-3β-(4-fluorophenyl)-8-(2-maleimidoethyl)-8-azabicyclo[3.2.1]octane]",IC50,[1]; [6],237 nM
same,IC50,[2]; [8],3000 nM
same,Inhibition of Cocaine Binding,"[3]; Table 6, incub time 1 h",50%/1 h
CCN1C(=O)C=CC1=O [Compound O-1765],Inhibition of Cocaine Binding,"[3]; Table 6, incub time 24 h",35%
same,Inhibition of DA uptake,"[4]; Table 6, incub time 24 h",35%
"C=CCCC(=O)OCC1C2CCC(CC1c1ccc(Cl)c(Cl)c1)O2 (stereo not drawn) [Compound O-1893, pent-4-enoic acid-(3α-(3,4-dichlorophenyl)-8-oxabicyclo[3.2.1]oct-2β-yl)methyl ester]",IC50,[1]; [5],20 nM
same,IC50,[2]; [7],593 nM
same,Inhibition of cocaine binding after 24 h (%),[3],63%
same,[3H]cocaine binding % of control,[3]; 1 hour pre-incubation,12 % of control and 10 % of control and 7 % of control
same,irreversible binding to the DAT,[3],no irreversible binding took place
same,decline of specific [3H]cocaine binding sites,"[3]; 24 hour pre-incubation, higher concentration (5 uM, different cells)",62%
same,Tot- NS (dpms),[3]; [9],"3,154 dpms and 3,853 dpms and 4,913 dpms and 6,331 dpms"
same,[3H]cocaine binding % of control,[3]; [9],45 % of control and 43 % of control and 42 % of control and 49 % of control
same,reduction of [3H]cocaine binding (CDPM),[3]; [10],more than 50%
same,Inhibition of DA uptake after 24 h (%),[4],23%
same,Inhibition of DA uptake after 24 h (%),[4]; listed as 3,much reduced; also recorded: no inhibition
same,Dopamine transport % of control,[4]; 1 hour pre-incubation,29 % of control and 43 % of control and 27 % of control
same,decrease of [3H]dopamine transport,[4]; 1 uM,5%
same,decrease of [3H]dopamine transport,"[4]; higher concentration (5 uM, different cells)",23% and 22%
same,[3H]Dopamine transport % of control,[4]; O-1893 (1 uM),91 % of control and 98 % of control and 95 % of control
same,[3H]Dopamine transport % of control,"[4]; O-1893-2 (5 uM, different cells), 5 µM",80 % of control and 72 % of control and 81 % of control and 90 % of control and 67 % of control
same,reduction of [3H]dopamine transport,[4]; [10],reduced to a lesser extent
same,transporter affinity for dopamine,"[4]; initially, within one hour of preincubation (n=3)",reduced
"COC(=O)C1C(c2ccc(F)cc2)CC2CCC1N2CCOC(=O)CCC1CO1 (stereo not drawn) [Compound O-1899, 2β-Carbomethoxy-3β-(4-fluorophenyl)-8-[2-(3-oxiranylpropionyloxy)ethyl]-8-azabicyclo[3.2.1]octane]",IC50,[1]; [6],53 nM
same,IC50,[2]; [8],230 nM
same,Inhibition of Cocaine Binding,"[3]; Table 6, incub time 24 h",0%
same,Inhibition of Cocaine Binding,"[3]; Table 6, incub time 48 h",40%
same,Inhibition of DA uptake,"[4]; Table 6, incub time 24 h",0%
same,Inhibition of DA uptake,"[4]; Table 6, incub time 48 h",20%
"CC(C)CC(=O)OCC1C2CCC(CC1c1ccc(Cl)c(Cl)c1)O2 (stereo not drawn) [Compound O-2059, 3-Methylbutanoic acid-[3α-(3,4-dichlorophenyl)-8-oxabicyclo[3.2.1]oct-2β-yl]methyl ester]",IC50,[1]; [5],75 nM
same,IC50,[2]; [7],515 nM
same,Inhibition of cocaine binding after 24 h (%),[3],60%
same,Inhibition of DA uptake after 24 h (%),[4],60%
"CCCCC(=O)OCC1C2CCC(CC1c1ccc(Cl)c(Cl)c1)O2 (stereo not drawn) [Compound O-2102, Pentanoic acid-[3α-(3,4-dichlorophenyl)-8-oxabicyclo[3.2.1]oct-2β-yl]methyl ester]",IC50,[1]; [5],71 nM
same,IC50,[2]; [7],917 nM
same,Inhibition of cocaine binding after 24 h (%),[3],0%
same,Inhibition of DA uptake after 24 h (%),[4],0%
"C=CCCCOCC1C2CCC(CC1c1ccc(Cl)c(Cl)c1)O2 (stereo not drawn) [Compound O-2153, 3α-(3,4-dichlorophenyl)-2β-pent-4-enyloxymethyl-8-oxabicyclo[3.2.1]octane]",IC50,[1]; [5],58 nM
same,IC50,[2]; [7],755 nM
same,Inhibition of cocaine binding after 24 h (%),[3],80%
same,irreversible binding to the DAT,[3],bound irreversibly
same,"Tot- NS (dpms) (column head not given, as Table 3)",[3]; [11],"12,216 and 6,792"
same,"[3H]cocaine binding % of control (column head not given, as Table 3)",[3]; [11],28 and 18
same,Inhibition of DA uptake after 24 h (%),[4],40%
same,"[3H]Dopamine transport % of control (column head not given, as Table 3)",[4]; [11],51 and 54
C=CCOC(=O)C1C2CCC(CC1c1ccc(Cl)c(Cl)c1)O2 (centres unmarked) [Compound O-2227],IC50,[1]; [6],3 nM
same,IC50,[2]; [8],32 nM
same,Inhibition of Cocaine Binding,"[3]; Table 6, incub time 1 h",0%
same,Inhibition of Cocaine Binding,"[3]; Table 6, incub time 24 h",55%
same,Inhibition of DA uptake,"[4]; Table 6, incub time 1 h",0%
same,Inhibition of DA uptake,"[4]; Table 6, incub time 24 h",40%
O=C(OCCN1C(=O)C=CC1=O)C1C(c2ccc(F)cc2)CC2CCC1N2CCN1C(=O)C=CC1=O (centres unmarked) [Compound O-2315],IC50,[1]; [6],2000 nM
same,IC50,[2]; [8],14000 nM
O=C(OCCCN1C(=O)C=CC1=O)C1C(c2ccc(F)cc2)CC2CCC1N2CCN1C(=O)C=CC1=O (centres unmarked) [Compound O-2335],IC50,[1]; [6],300 nM
same,IC50,[2]; [8],10000 nM
O=C(OCCCN1C(=O)C=CC1=O)C1C(c2ccc(F)cc2)CC2CCC1N2CCCN1C(=O)C=CC1=O (centres unmarked) [Compound O-2492],IC50,[1]; [6],237 nM
same,IC50,[2]; [8],2000 nM
C=CCCC(=O)OCC1C(c2ccc(F)cc2)CC2CCC1N2C (centres unmarked) [Compound O-2517],IC50,[1]; [6],60 nM
C=CCCCOCC1C(c2ccc(F)cc2)CC2CCC1N2C (centres unmarked) [Compound O-2528],IC50,[1]; [6],41 nM
C=CCCNC(=O)C1C(c2ccc(F)cc2)CC2CCC1N2C (centres unmarked) [Compound O-2578],IC50,[1]; [6],800 nM
C=CCCNCC1C(c2ccc(F)cc2)CC2CCC1N2C (centres unmarked) [Compound O-2583],IC50,[1]; [6],500 nM
"CCN1C(=O)C=CC1=O [N-Ethylmaleimide, N-ethylmaleimide, reference compound]",IC50,"[1]; read-out: Dopamine transporter IC50 (nM) [3H]WIN 35,428, Table 5",> 100000 nM
same,IC50,[2]; [7],> 100000 nM
same,Inhibition of cocaine binding after 24 h (%),[3],35%
same,irreversible binding to the DAT,[3],did manifest irreversible binding
same,Inhibition of DA uptake after 24 h (%),[4],35%
"COC(=O)C1C(c2ccc(F)cc2)CC2CCC1N2C (stereo not drawn) [WIN 35,428, 2β-carbomethoxy-3β-(4-fluorophenyl)-8-methyl-8-azabicyclo[3.2.1]octane, reference compound]",IC50,[1]; [5],11 nM
same,IC50,[2]; [7],160 nM
same,irreversible binding to the DAT,[3],did not bind irreversibly
same,IC50,DAT,11 nM
